According to ChEMBL document CHEMBL1201862, “PubChem BioAssay data set” (2004):
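Step 1: Grow cells in 96-well plates. Step 2: Expose to compound for 48 hours at 5 concentrations. Step 3: Interpolate endpoints linearly; if unreached, use highest concentration. The concentration for 50% growth inhibition is given as GI50.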 Activity calls are given as the source filed them. Cut-off read from the data, not from the text of the source: active = GI50 up to about 1.1 µM and inactive = higher.

Experiments:
Test in all cases: growth of human tumour cells (NCI), 48 h
NCI-H460 = system: NCI-H460
SNB-19 = system: SNB-19
KM12 = system: KM12
HCT-15 = system: HCT-15
RXF 393 = system: RXF 393
MDA-MB-435 = system: MDA-MB-435
NCI-H226 = system: NCI-H226
NCI-H23 = system: NCI-H23
HOP-62 = system: HOP-62
NCI/ADR-RES = system: NCI/ADR-RES
UACC-62 = system: UACC-62
UO-31 = system: UO-31
HCT-116 = system: HCT-116
CAKI-1 = system: CAKI-1
SN12C = system: SN12C
SK-MEL-5 = system: SK-MEL-5
UACC-257 = system: UACC-257
A498 = system: A498
OVCAR-4 = system: OVCAR-4
MDA-MB-231 = system: MDA-MB-231

Compound | GI50 (NCI-H460) | GI50 (SNB-19) | GI50 (KM12) | GI50 (HCT-15) [µM] | GI50 (RXF 393) | GI50 (MDA-MB-435) | GI50 (NCI-H226) | GI50 (NCI-H23) | GI50 (HOP-62) | GI50 (NCI/ADR-RES) | GI50 (UACC-62) | GI50 (UO-31) | GI50 (HCT-116) | GI50 (CAKI-1) | GI50 (SN12C) | GI50 (SK-MEL-5) | GI50 (UACC-257) | GI50 (A498) | GI50 (OVCAR-4) | GI50 (MDA-MB-231)
C/C(=N\O)c1ccc(Nc2c3ccccc3nc3occc23)cc1 | 0.2 µM (active) | 0.603 µM (active) | 0.231 µM (active) | 0.126 | 0.0352 µM (active) | 0.0246 µM (active) | 2.99 µM (inactive) | 1.36 µM (inactive) | 0.436 µM (active) | 0.115 µM (active) | 0.228 µM (active) | 3.49 µM (inactive) | 0.185 µM (active) | 0.231 µM (active) | 1.44 µM (inactive) | 0.222 µM (active) | 7.26 µM (inactive) | 1.11 µM (active) | 0.762 µM (active) | 0.9 µM (active)
CC(C)C(O)(C(C)C)C(C)C | > 100 µM (inactive) | > 100 µM (inactive) | > 100 µM (inactive) | > 100 | > 100 µM (inactive) | > 100 µM (inactive) | > 100 µM (inactive) | > 100 µM (inactive) | > 100 µM (inactive) | > 100 µM (inactive) | > 100 µM (inactive) | > 100 µM (inactive) | > 100 µM (inactive) | > 100 µM (inactive) | > 100 µM (inactive) | > 100 µM (inactive) | > 100 µM (inactive) | > 100 µM (inactive) | > 100 µM (inactive) | > 100 µM (inactive)
CCCCc1ccc(Nc2nc(Cl)c3ncn(COCCOC(C)=O)c3n2)cc1 | 17.6 µM (inactive) | 19.9 µM (inactive) | 20.4 µM (inactive) | 16.7 | 16.9 µM (inactive) | 18.5 µM (inactive) | 21.5 µM (inactive) | 16.2 µM (inactive) | 17.1 µM (inactive) | 20 µM (inactive) | 17.3 µM (inactive) | 16 µM (inactive) | 17.6 µM (inactive) | 1.89 µM (inactive) | 21.8 µM (inactive) | 16.7 µM (inactive) | 19.8 µM (inactive) | 25.5 µM (inactive) | 33.7 µM (inactive) | 15.3 µM (inactive)
